Data reported in patent US20100204258A1, “METHODS AND COMPOSITIONS FOR MODULATING INSULIN SECRETION AND GLUCOSE METABOLISM” (The Trustees of Columbia University in the City of New York, priority 2007, published 2010).
Entries after “also recorded” stand apart in the source; their conditions may differ.

What was measured:
Assay type in all cases: in vivo, rat
[1] = system: plasma insulin and glucagon; assay: Plasma insulin and glucagon (ELISA) during IPGTT
Protocol: (§1) Blood glucose, insulin, glucagon and intraperitoneal glucose tolerance tests measurements. Blood samples were collected from a superficial blood vessel in the tails of the rats following 6 hours of fasting between 12:00 noon and 2:00 p.m. The fasting blood glucose (BG) levels of the rats were measured using an Accu-Check blood glucose monitoring system (Roche Diagnostics, Sommerville, N.J.). Intraperitoneal glucose tolerance tests (IPGTT) were performed in 6 hour fasting un-anaesthetized animals. Briefly, after baseline BG measurements, animals received an intraperitoneal (i.p.) injection of 1 gram glucose/kilogram body weight. To minimize stress during the procedure, rats were handled by the same operator during acclimatization and later during weighing and IPGTT. Blood samples (approximately 30 μl) were collected at baseline and then again 15, 30, 60, 90, and 120 minutes following i.p. glucose administration. BG concentrations were measured immediately on these samples and the remainder processed.
(§2) Plasma was immediately separated by centrifugation at 3000×g for 15 minutes and then stored at −20° C. until analysis. Insulin and glucagon concentration measurements in rat plasma were performed by ELISA as per the manufacturer's instructions using kits from Linco Research Inc. (St. Charles, Mo.) and Alpco Diagnostics (Salem, N.H.), respectively. To validate the test, saline injections were performed by the same method. […] The area under the IPGTT glucose concentration×time curve (AUCIPGTT) was calculated by the trapezoidal rule. The area under the insulin or glucagon concentration×time curve (AUC INS or AUC GCG) was calculated in a similar manner.

Lewis rats [2] = assay: Intraperitoneal glucose tolerance test (IPGTT) in normal Lewis rats after a single i.v. dose; conditions: for blood glucose excursion during IPGTT: Lewis rats 9-11 week old, 1.6 μg/gm body weight i.v. 60 min before IPGTT, vs vehicle
Protocol: (§3) Experimental animals. All animal studies were reviewed and approved by the Institutional Animal Care and Use Committee (IACUC) at Columbia University's Medical School. All experiments were performed in accordance with the IACUC approved procedures. Normal male Lewis rats (100-400 grams) were obtained from Taconic (Taconic Inc., Germantown, N.Y.) and were housed under conditions of controlled humidity (55±5%), temperature (23±1° C.), and lighting (light on: 06.00-18.00 hours) with free access to standard laboratory rat chow and water. Rats were handled daily to minimize nonspecific stress for more than 7 days before the experiments began. In most experiments, it was necessary to measure blood glucose in fasting animals. For these groups, food was removed at the beginning of the light cycle, 6 hours before glucose levels were measured. Diabetes mellitus was induced by intraperitoneal injection of streptozotocin (Sigma Chemical Co., St. Louis, Mo.) (25 to 50 mg/kg) to animals (100 to 150 grams) that had been fasted 4 hours to enhance the effectiveness of STZ treatment.
(§4) The STZ solution was prepared fresh by dissolving it in 0.1 M citrate buffer (pH 5.5) and terminally sterile filtered. Control Lewis age and weight matched rats received a 0.5 ml/kg citrate vehicle alone via intraperitoneal injection. Sixty minutes prior to intraperitoneal glucose tolerance testing (IPGTT), anesthesia of male Lewis rats was induced with isoflurane (3-4% in oxygen) and maintained with 1-2% isoflurane in oxygen. Anaesthetized rats were administered TBZ at the indicated dose by intravenous (i.v.) injection using the penile vein. TBZ was dissolved in neat sterile dimethylsulfoxide (DMSO) and diluted (always more than 10 fold) in sterile saline. Rats received injections of vehicle alone (10% DMSO in saline) or reserpine (in saline). Animals recovered fully before receiving IPGTT.
as §1, §2

diabetic Lewis rats = assay: IPGTT in streptozotocin-induced diabetic Lewis rats
Protocol: as §3, §4
Blood glucose, insulin, glucagon and intraperitoneal glucose tolerance tests measurements. Blood samples were collected from a superficial blood vessel in the tails of the rats following 6 hours of fasting between 12:00 noon and 2:00 p.m. The fasting blood glucose (BG) levels of the rats were measured using an Accu-Check blood glucose monitoring system (Roche Diagnostics, Sommerville, N.J.). […] BG concentrations were measured immediately on these samples and the remainder processed.
Plasma was immediately separated by centrifugation at 3000×g for 15 minutes and then stored at −20° C. until analysis. […] The area under the IPGTT glucose concentration×time curve (AUCIPGTT) was calculated by the trapezoidal rule. The area under the insulin or glucagon concentration×time curve (AUC INS or AUC GCG) was calculated in a similar manner.

Lewis rats [3] = assay: IPGTT with TBZ, emetine and Compound 6 (FIG. 12); conditions: single dose 2-3 mg/kg body weight
Protocol: Experimental animals. All animal studies were conducted as described in Example 1. […] Rats received injections of vehicle alone (10% DMSO in saline) or reserpine (in saline). Animals recovered fully before receiving IPGTT. Blood glucose, insulin, glucagon and intraperitoneal glucose tolerance tests measurements. […] The fasting blood glucose (BG) levels of the rats were measured using an Accu-Check blood glucose monitoring system (Roche Diagnostics, Sommerville, N.J.). Intraperitoneal glucose tolerance tests (IPGTT) were performed in 6 hour fasting un-anaesthetized animals. Briefly, after baseline BG measurements, animals received an intraperitoneal (i.p.) injection of 1 gram glucose/kilogram body weight. To minimize stress during the procedure, rats were handled by the same operator during acclimatization and later during weighing and IPGTT. Blood samples (approximately 30 μl) were collected at baseline and then again 15, 30, 45, 60, 90, and 120 minutes following i.p. glucose. BG concentrations were measured immediately on these samples and the remainder processed.

[4] = system: dopamine content of brain and pancreas tissue; assay: Dopamine content of brain and pancreas extracts by ELISA after i.v. TBZ
Protocol: Dopamine measurements. Anaesthetized rats received an intravenous injection of TBZ and were sacrificed one hour later. Euthanasia was performed by exsanguination of the anesthetized animal. Brain and pancreas were harvested as quickly as possible and frozen at −80° C. until use. Frozen tissue was pulverized in a liquid nitrogen cooled mortar and extracted in 0.01 N HCl. The tissue extract was centrifuged at 10,000×g at 4° C. to remove debris and the total protein was estimated by reading the absorbance at 280 nm. The concentration of dopamine in the extract was estimated using an ELISA kit from Rocky Mountain Diagnostics (Colorado Springs, Colo.) per the manufacturer's instructions and normalized to the extract protein concentration.

[5] = 1.6 μg/gm body weight i.v., one hour later (FIG. 3)
[6] = one hour after injection of 10 μg/gm body weight

## COc1cc2c(cc1OC)C1CC(=O)C(CC(C)C)CN1CC2 (stereo not shown) [TBZ, tetrabenazine]
[1]; TBZ 1.6 μg/gm and glucose challenge, vs vehicle treated controls
  plasma insulin levels during IPGTT: alters; also recorded: greater
[1]; four out of five experiments
  AUC INS with treatment relative to AUC INS of control animals: greater than two fold
[1]; i.v. TBZ 1.6 μg/gm and glucose challenge, relative to controls
  plasma glucagon levels during IPGTT: alters; also recorded: generally lower
[1]; prior to glucose challenge, not statistically significant
  baseline plasma concentrations of glucagon: sometimes lower than controls
[1]; three of five experiments
  AUC GCG, less than that of control animals: 75%-85%
Lewis rats [2]; 1.6 μg/gbm (gram body weight) i.v.
  reduction of the glucose excursion (areas under the curve during IPGTT): 40-50%
Lewis rats [2]; 1.6 μg/gm body weight, n=4 experiments, p<0.05
  AUC IPGTT, controls vs TBZ treated animals: significantly higher
Lewis rats [2]; IPGTT following TBZ administration
  rise in glucose concentration around 15 minutes after injection: blunted
Lewis rats [2]
  blood glucose excursion during IPGTT: reduces the blood glucose excursion
Lewis rats [2]; listed as tetrabenazine
  blood glucose excursion during IPGTT: significant change in the size and shape of the glucose disposition curve
Lewis rats [2]; following TBZ administration, before glucose challenge, data not shown
  baseline fasting glucose concentration: no reproducible differences
Lewis rats [2]; varying doses of TBZ before IPGTT
  dose response of AUC IPGTT (normalized to baseline): reduces the blood glucose excursion in a dose dependent manner; also recorded: complex dose response effect
Diabetic Lewis rats; STZ-diabetic Lewis rats, 1.6 μg/gm, vs vehicle
  blood glucose excursion during IPGTT: reduces the blood glucose excursion
Diabetic Lewis rats; STZ-diabetic rats, around sixty minutes following i.v. injection
  blood glucose levels before i.p. glucose challenge: returned to control or near normal levels
Diabetic Lewis rats; STZ-diabetic rats, following glucose challenge
  area under the curve in the IPGTT: smaller area under the curve
Diabetic Lewis rats; animals with initial untreated AUC IPGTT>50,000 minutes×mg/dl, data not shown
  glucose tolerance-enhancing effects: not observed
Lewis rats [3]
  blood glucose excursion during IPGTT: consistently reduced the blood glucose excursion
Lewis rats [3]; separate experiments
  area under the curve from IPGTT: depress the area under the curve; also recorded: consistently suppressed the area under the curve
[4]; [5]
  dopamine content of brain tissue: reduces the dopamine content
  dopamine content of pancreas tissue: reduces the dopamine content
[4]; [6]
  dopamine content of brain: significantly depleted
  dopamine content of pancreas: significantly depleted
